Source: ChEMBL document CHEMBL5036330, “Discovery of 8,9-seco-ent-Kaurane Diterpenoids as Potential Leads for the Treatment of Triple-Negative Breast Cancer” (J Med Chem, 2021)
Active and inactive are the calls of the source. The rule behind the calls is not given here.

Legend:
[1] = molecular target: RAC-alpha serine/threonine-protein kinase (Homo sapiens) (UniProt P31749); assay: Binding affinity to Akt1 in human MDA-MB-231 cells assessed as shifted melting curve at 2 uM by CETSA assay; format: cell-based
RAC-alpha serine/threonine-protein kinase (Homo sapiens), sequence (P31749 whole entry): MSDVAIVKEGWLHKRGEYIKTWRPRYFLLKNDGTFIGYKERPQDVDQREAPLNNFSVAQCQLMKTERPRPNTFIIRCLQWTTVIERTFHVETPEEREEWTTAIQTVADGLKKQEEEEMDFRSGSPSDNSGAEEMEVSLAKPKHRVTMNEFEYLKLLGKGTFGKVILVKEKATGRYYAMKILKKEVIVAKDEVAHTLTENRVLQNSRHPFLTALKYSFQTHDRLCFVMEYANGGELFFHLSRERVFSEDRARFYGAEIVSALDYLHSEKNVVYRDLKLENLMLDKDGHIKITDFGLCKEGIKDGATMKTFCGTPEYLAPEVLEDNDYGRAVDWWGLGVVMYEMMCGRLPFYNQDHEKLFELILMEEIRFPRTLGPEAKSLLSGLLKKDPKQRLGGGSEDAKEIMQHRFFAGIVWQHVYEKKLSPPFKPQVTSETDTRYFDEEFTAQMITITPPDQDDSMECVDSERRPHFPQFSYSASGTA

MDA-MB-231 = assay: Induction of apoptosis in human MDA-MB-231 cells assessed as increase in cleaved PARP at 1 to 5 uM measured after 24 hrs by Western blot analysis; format: functional, cell-based; settings: dose 1-5 µM

Activity [1]: Active
SMILES: C=C1C(=O)C2=C[C@H]1CCC(=O)[C@]1(C)[C@H](O)CCC(C)(C)[C@H]1C[C@H]2O
Activity (MDA-MB-231): Active
